In patent US20220356174A1, “PYRIDIN-2-ONE COMPOUNDS USEFUL AS SMARCA2 ANTAGONISTS” (Epizyme, Inc., priority 2018, published 2022):
pIC50: −log10 of the molar value. Where two headings read alike, the source gives them in different places.

Key:
[1] = molecular target: T1, FL-SMARCA2 (full-length human SMARCA2 isoform 1) (Homo sapiens, UniProt P51531); assay: SMARCA2 ATPase activity assay (ADP-Glo, chicken mononucleosome substrate); type: biochemical; conditions: ATPase assay, enzyme 5 nM, ATP 250 uM, chicken mononucleosome 10 nM, 30 min preincubation
T1 construct: FLAG tag (YKDDDDK) (C); made in house; host or cells: Sf21 insect cells (baculovirus, pFastBacI)
T1 sequence (P51531 with tags, fused parts or gaps): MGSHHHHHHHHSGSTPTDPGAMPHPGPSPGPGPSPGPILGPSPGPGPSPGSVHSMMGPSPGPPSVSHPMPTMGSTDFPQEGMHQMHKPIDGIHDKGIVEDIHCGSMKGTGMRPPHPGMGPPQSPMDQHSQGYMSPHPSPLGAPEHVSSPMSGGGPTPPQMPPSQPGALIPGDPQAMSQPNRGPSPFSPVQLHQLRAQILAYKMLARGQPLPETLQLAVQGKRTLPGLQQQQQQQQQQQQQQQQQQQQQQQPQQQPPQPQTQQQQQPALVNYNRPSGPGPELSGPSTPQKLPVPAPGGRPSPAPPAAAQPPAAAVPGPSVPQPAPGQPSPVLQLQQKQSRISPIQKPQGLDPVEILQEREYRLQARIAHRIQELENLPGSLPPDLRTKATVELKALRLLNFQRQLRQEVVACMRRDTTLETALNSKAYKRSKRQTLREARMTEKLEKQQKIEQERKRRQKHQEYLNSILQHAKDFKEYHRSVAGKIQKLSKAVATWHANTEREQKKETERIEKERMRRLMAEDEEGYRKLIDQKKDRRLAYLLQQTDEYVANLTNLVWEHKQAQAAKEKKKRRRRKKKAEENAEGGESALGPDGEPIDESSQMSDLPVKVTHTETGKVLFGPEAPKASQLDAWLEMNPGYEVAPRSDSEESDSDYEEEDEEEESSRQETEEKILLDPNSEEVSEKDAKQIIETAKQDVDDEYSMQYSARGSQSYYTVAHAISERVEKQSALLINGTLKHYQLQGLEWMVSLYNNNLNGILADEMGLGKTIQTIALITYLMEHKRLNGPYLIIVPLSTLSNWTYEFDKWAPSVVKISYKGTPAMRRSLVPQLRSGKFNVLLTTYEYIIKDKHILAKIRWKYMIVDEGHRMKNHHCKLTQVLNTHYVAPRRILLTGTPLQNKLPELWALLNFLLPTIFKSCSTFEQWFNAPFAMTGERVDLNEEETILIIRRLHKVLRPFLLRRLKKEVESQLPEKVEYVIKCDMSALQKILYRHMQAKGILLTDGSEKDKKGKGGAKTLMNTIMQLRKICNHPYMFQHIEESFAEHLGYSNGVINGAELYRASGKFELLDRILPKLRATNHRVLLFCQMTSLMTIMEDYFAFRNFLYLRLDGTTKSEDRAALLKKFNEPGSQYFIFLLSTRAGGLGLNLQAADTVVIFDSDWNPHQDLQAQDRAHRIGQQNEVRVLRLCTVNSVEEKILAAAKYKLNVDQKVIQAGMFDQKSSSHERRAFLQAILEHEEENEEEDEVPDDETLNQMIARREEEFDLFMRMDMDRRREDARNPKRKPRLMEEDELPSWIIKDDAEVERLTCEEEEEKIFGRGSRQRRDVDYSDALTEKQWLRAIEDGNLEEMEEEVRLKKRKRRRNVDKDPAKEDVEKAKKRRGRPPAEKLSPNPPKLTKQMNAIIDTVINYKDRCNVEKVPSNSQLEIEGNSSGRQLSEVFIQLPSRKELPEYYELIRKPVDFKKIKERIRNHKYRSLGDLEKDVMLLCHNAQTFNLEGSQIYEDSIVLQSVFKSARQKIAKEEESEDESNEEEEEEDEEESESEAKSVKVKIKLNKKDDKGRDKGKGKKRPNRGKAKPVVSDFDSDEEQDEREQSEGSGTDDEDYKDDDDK

[2] = system: A549 cells; assay: Long term proliferation (LTP) assay, day 15 IC50 in A549 cells; type: cell-based; conditions: Homo sapiens, 360 h
[3] = molecular target: FL-SMARCA4 (Homo sapiens, UniProt P51532); assay: SMARCA4 ATPase activity assay (ADP-Glo, chicken mononucleosome substrate)
Chain of FL-SMARCA4 (P51532 whole entry): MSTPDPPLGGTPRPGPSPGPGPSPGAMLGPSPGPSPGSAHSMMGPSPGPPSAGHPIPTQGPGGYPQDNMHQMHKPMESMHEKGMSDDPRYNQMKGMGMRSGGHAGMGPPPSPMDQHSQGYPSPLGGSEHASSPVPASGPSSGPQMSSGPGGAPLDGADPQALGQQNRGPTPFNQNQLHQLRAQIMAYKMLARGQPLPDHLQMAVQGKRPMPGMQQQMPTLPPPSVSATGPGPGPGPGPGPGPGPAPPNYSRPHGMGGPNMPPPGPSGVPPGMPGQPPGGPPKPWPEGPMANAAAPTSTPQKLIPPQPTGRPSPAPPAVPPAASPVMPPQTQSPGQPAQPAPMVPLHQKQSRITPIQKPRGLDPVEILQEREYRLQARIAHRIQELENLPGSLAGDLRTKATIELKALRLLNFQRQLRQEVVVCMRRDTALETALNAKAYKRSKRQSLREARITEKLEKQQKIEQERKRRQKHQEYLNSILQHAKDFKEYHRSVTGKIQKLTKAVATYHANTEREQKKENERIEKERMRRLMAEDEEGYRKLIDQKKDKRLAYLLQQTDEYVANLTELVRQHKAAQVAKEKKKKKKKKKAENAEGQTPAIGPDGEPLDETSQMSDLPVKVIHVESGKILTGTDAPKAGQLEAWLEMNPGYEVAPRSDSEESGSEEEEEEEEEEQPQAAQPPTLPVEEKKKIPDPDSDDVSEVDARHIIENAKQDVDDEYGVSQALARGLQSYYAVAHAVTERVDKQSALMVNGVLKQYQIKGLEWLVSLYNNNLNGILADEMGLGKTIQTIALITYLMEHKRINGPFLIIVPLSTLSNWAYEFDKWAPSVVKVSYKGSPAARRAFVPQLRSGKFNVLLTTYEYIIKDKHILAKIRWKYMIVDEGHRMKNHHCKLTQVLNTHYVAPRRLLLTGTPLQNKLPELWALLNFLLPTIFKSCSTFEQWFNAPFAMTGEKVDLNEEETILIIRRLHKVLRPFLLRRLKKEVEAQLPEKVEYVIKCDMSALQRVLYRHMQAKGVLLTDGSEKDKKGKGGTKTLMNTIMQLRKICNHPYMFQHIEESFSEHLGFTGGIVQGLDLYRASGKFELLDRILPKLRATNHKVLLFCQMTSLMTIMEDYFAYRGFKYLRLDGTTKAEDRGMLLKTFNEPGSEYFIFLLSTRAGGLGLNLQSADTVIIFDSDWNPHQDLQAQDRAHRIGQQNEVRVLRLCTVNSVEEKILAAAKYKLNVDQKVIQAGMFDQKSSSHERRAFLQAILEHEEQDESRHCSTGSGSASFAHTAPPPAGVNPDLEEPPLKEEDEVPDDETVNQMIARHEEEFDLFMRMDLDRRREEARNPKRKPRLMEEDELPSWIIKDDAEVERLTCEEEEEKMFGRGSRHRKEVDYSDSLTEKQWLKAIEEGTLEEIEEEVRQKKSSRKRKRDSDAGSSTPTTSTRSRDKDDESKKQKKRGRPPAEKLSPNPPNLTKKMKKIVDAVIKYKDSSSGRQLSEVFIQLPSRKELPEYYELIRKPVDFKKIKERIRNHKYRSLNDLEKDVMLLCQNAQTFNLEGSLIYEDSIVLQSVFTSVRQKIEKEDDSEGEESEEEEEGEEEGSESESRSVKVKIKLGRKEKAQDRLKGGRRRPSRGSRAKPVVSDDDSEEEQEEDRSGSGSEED

[4] = system: H358 cells; assay: High-throughput proliferation (HTP) assay for H358 cells (CellTiter-Glo, 7 days); type: cell-based; conditions: Homo sapiens, NCI-H358, 168 h, read-out: H358 SMARCA2 IC50
Summary of the method: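 Cells were plated at 1,000 cells/well in RPMI 1640 + 10% HI-FBS + 1% pen/strep on pre-dispensed compound and incubated 7 days at 37 °C, 5% CO2. Viability was read as ATP luminescence with CellTiter-Glo after 30 min at RT. DMSO served as 0% and 10 µM doxorubicin as 100% inhibition for EC50/IC50.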

[5] = system: A549 cells; assay: High-throughput proliferation (HTP) assay for A549 cells (CellTiter-Glo, 7 days); type: cell-based; conditions: Homo sapiens, 168 h, read-out: A549 SMARCA2 IC50
Summary of the method: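 A549 cells plated at 62.5 cells/well in F12K + 10% HI-FBS onto pre-dispensed compound, grown 7 days at 37° C., 5% CO2. Viability by CellTiter-Glo luminescence after 30 min at RT; EC50/IC50 from DMSO (0%) and 10 μM Doxorubicin (100%) inhibition controls.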

[6] = molecular target: T2, SMARCA2 (Homo sapiens, UniProt P51531); assay: SMARCA2 FRET nucleosome remodeling activity assay; type: biochemical
T2 construct: FLAG tag (YKDDDDK) (C); made in house; host or cells: Sf21 insect cells (baculovirus, pFastBacI)
T2 sequence (P51531 with tags, fused parts or gaps): as the sequence (P51531 with tags, fused parts or gaps) above
Protocol: The SMARCA2 remodeling assay was initiated by the addition of 2 uL of a nucleosome remodeling assay substrate and ATP mixture (final volume=10 uL). […] The assays were terminated after 15 minutes by the addition of 2 uL EDTA (final concentration of 25 mM). The SMARCA2 remodeling activity was determined by measuring the fluorescence ratio of the Cy3 and Cy5 labels ([…]). The remodeling of the nucleosome substrate causes an increase in the spacing between the Cy3 and Cy5 labels and therefore a reduction in FRET and an increase in Cy3/Cy5 fluorescence ratio.

[7] = FL-SMARCA4 IC>50, Table 3c.2, ATPase assay, enzyme 5 nM, ATP 250 uM, chicken mononucleosome 10 nM, 30 min preincubation
[8] = FL-SMARCA4 IC50, Table 3.2, ATPase assay, enzyme 5 nM, ATP 250 uM, chicken mononucleosome 10 nM, 30 min preincubation

| pIC50 ([1]; Table 3d.1, read-out: FL-SMARCA2 IC>50) | pIC50 [2] | pIC50 ([3]; FL-SMARCA4 IC50) | pIC50 ([1]; Table 3.1) | pIC50 [4] | pIC50 ([1]; Table 3c.1) | pIC50 [3, 7] | pIC50 [5] | pIC50 [3, 8] | pIC50 [6] | Compound |
| --- | --- | --- | --- | --- | --- | --- | --- | --- | --- | --- |
| < 4.30 | ≤ 4.52 | < 4.30 | – | – | – | – | – | – | – | CCn1cc(NC(=O)c2cc(Cl)c(Cl)s2)ncc1=O [Compound 18d] |
| – | 4.82 | – | 5.90 | – | – | – | – | – | – | CCn1cc(NC(=O)c2cc(Cl)c(Cl)s2)ccc1=O [Compound 43] |
| – | ≤ 5.00 | – | – | < 5.00 | 4.98 | 4.53 | < 5.00 | – | – | N#Cc1sc(C(=O)Nc2cc(F)c(=O)n(CC(F)F)c2)cc1C(F)(F)F [Compound 96c] |
| – | 6.32 | – | 7.51 | – | – | – | 5.94 | 6.97 | 7.18 | N#Cc1sc(C(=O)Nc2cc(Cl)c(=O)n(CCF)c2)cc1Cl [Compound 125, 4-Chloro-N-(5-chloro-1-(2-fluoroethyl)-6-oxo-1,6-dihydropyridin-3-yl)-5-cyanothiophene-2-carboxamide] |
| – | 6.27 | – | 7.32 | – | – | – | 5.87 | 6.79 | 7.22 | O=C(Nc1cc(F)c(=O)n(CCF)c1)c1cnc(Cl)s1 [Compound 142] |
| – | 5.38 | – | 7.77 | – | – | – | ≤ 4.70 | 7.06 | 7.66 | N#Cc1cc(C(=O)Nc2cc(Cl)c(=O)n(CCF)c2)sc1C#N [Compound 192] |
| – | 6.49 | – | 7.45 | – | – | – | 6.13 | 6.59 | 7.15 | O=C(Nc1cc(F)c(=O)n(CCF)c1)c1cc(Cl)c(C(F)(F)F)s1 [Compound 249] |
| – | 6.75 | – | 7.29 | – | – | – | 5.61 | 6.64 | – | O=C(Nc1cc(F)c(=O)n(CCF)c1)c1cc(F)c(F)s1 [Compound 259] |
| – | 7.03 | – | 7.82 | – | – | – | 6.28 | 7.18 | 7.74 | O=C(Nc1cc(F)c(=O)n(CCF)c1)c1cc(F)c(Cl)s1 [Compound 260] |
| – | ≤ 5.00 | – | < 4.30 | – | – | – | – | < 4.30 | – | N#Cc1ncc(C(=O)Nc2cc(F)c(=O)n(CC(F)(F)F)c2)o1 [Compound 267] |
| – | 6.97 | – | 7.72 | – | – | – | 6.50 | 7.17 | – | O=C(Nc1cc(F)c(=O)n(CC(F)F)c1)c1cc(F)c(Cl)s1 [Compound 323] |
| – | 6.55 | – | 7.46 | – | – | – | – | 6.86 | – | O=C(Nc1cc(F)c(=O)n(CCF)c1)c1cc(F)c(C(F)F)s1 [Compound 324] |
| – | 7.24 | – | 7.78 | < 5.00 | – | – | 6.45 | 7.42 | – | O=C(Nc1cc(F)c(=O)n(CC(F)F)c1)c1cc(C#Cc2ccncc2)c(Cl)s1 [Compound 345] |

Second part, the compound before the results:

| Compound | pIC50 ([1]; Table 3d.1, read-out: FL-SMARCA2 IC>50) | pIC50 [2] | pIC50 ([3]; FL-SMARCA4 IC50) | pIC50 ([1]; Table 3.1) | pIC50 [4] | pIC50 ([1]; Table 3c.1) | pIC50 [3, 7] | pIC50 [5] | pIC50 [3, 8] | pIC50 [6] |
| --- | --- | --- | --- | --- | --- | --- | --- | --- | --- | --- |
| Cn1c(C(=O)Nc2ccc(=O)n(-c3ccccc3)c2)cc(Cl)c1Cl [Compound 47] | – | ≤ 4.52 | – | < 4.30 | – | – | – | – | – | – |
| Cc1ncc(C#Cc2cc(C(=O)Nc3cc(F)c(=O)n(CC(F)F)c3)sc2Cl)o1 [Compound 62c] | – | 7.05 | – | – | < 5.00 | 8.09 | 7.57 | 6.26 | – | – |
| Cc1cc(C#Cc2cc(C(=O)Nc3cc(F)c(=O)n(CC(F)F)c3)sc2Cl)sn1 [Compound 64c] | – | 7.06 | – | – | < 5.00 | 8.06 | 7.53 | 6.43 | – | – |
| O=C(Nc1ccc(=O)n(CCF)c1)c1cc(Cl)c(Cl)s1 [Compound 80] | – | 5.20 | – | 6.68 | – | – | – | 4.94 | 6.12 | – |
| O=C(Nc1cc(Cl)c(=O)n(CCF)c1)c1cc(Cl)c(Cl)s1 [Compound 101] | – | 6.45 | – | 7.13 | – | – | – | 5.64 | 6.62 | 6.50 |
| N#Cc1ncc(C(=O)Nc2cc(F)c(=O)n(CCF)c2)s1 [Compound 138] | – | ≤ 4.70 | – | 8.19 | – | – | – | ≤ 4.70 | 7.79 | 7.85 |
| N#Cc1cc(C(=O)Nc2cc(F)c(=O)n(CCF)c2)[nH]n1 [Compound 176] | – | ≤ 4.70 | – | 7.26 | – | – | – | ≤ 4.70 | 6.57 | 7.09 |
| CCn1cc(NC(=O)c2cc(C#N)c(C#N)s2)cc(F)c1=O [Compound 188] | – | 5.00 | – | 7.52 | – | – | – | 4.74 | 6.93 | 7.65 |
| N#Cc1cc(C(=O)Nc2cc(F)c(=O)n(CC(F)(F)F)c2)sc1C#N [Compound 190] | – | 5.41 | – | 7.70 | – | – | – | 4.92 | 7.07 | 7.46 |
| CCn1cc(NC(=O)c2cc(C#N)c(C#N)s2)cc(Cl)c1=O [Compound 191] | – | 5.08 | – | 7.34 | – | – | – | 4.87 | 6.74 | 7.19 |
| O=C(Nc1cc(F)c(=O)n(CCF)c1)c1cnc(C(F)(F)F)s1 [Compound 265] | – | 6.07 | – | 7.09 | – | – | – | 5.14 | 6.23 | 6.84 |
| O=C(Nc1cc(F)c(=O)n(CC(F)F)c1)c1cc(F)c(C(F)F)s1 [Compound 325] | – | 6.51 | – | 7.45 | – | – | – | – | 6.79 | – |
